Literature values in patent publication US7767881B2, “Utilization of histamine receptor h3 gene participating in body weight or food intake control” (priority 2001, dated 2010).

How the values were obtained:
[1] = experimental epilepsy model
mice [2] = tested on: mice
mice [3] = tested on: mice; remark: listed apart in the source
mice [4] = tested on: mice; remark: listed apart in the source
[5] = tested on: senescence-accelerated mice; conditions: senescence-accelerated mice with learning disabilities

Question: For CCCN(CCC)C1CCc2cccc(O)c2C1 (centres unmarked) [8-OH-DPAT], which “histamine neuron metabolic turnover” value (histamine neuron) is on record?
Answer: The value was “reduce histamine neuron metabolic turnover”.

Question: Which electroconvulsion [1] does the source give for NC(=NCc1ccc(Cl)cc1)SCCCc1cnc[nH]1 [Clobenpropit] here?
Answer: The electroconvulsion was “suppressed”.

Question: Which results are given for C[C@@H](N)Cc1c[nH]cn1 [RAMH, R-α-methylhistamine]?
Answer: voluntary movement (rats): decreases voluntary movement; voluntary movement (mice [2]): decreases voluntary movement; deep slow-wave sleep (cats; administration of the agonist): significant increase in deep slow-wave sleep

Question: For O=C1CC2(CCCC2)CC(=O)N1CCCCN1CCN(c2ncccn2)CC1 [buspirone], which “histamine neuron metabolic turnover” value (histamine neuron) is on record?
Answer: Its value is “reduce histamine neuron metabolic turnover”.

Question: For Clc1cccc(Cl)c1NC1=NCCN1 [clinidine], which “histamine neuron metabolic turnover” value (histamine neuron) is on record?
Answer: The value was “reduce histamine neuron metabolic turnover”.

Question: With NCCc1c[nH]cn1 [histamine] as the compound, how does the analgesic/algesic action (mice [3]; mice, intracerebral administration) read?
Answer: Its analgesic/algesic action is “analgesic and/or algesic action, depending on the dose”.

Question: For S=C(NC1CCCCC1)N1CCC(c2cnc[nH]2)CC1 [thioperamide], which waking (cats; effect antagonized by RAMH) is on record?
Answer: Its waking is “waking effects were observed”.

Question: What about the “effect on RAMH-induced increase in deep slow-wave sleep” value (cats; given against RAMH) of the same compound?
Answer: Its value is “reversed”.

Question: And the anxiety (mice [4])?
Answer: The anxiety was “anxiety-inducing effects”.

Question: And the learning [5]?
Answer: Its learning is “improving learning”.

Question: What about the electroconvulsion [1] of the same compound?
Answer: Its electroconvulsion is “suppressed”.

Question: And the analgesia (mice [3]; due to stimulation of the histamine receptor H1 protein, antagonized by RAMH)?
Answer: The analgesia was “attenuation of analgesia”.
